Assay results from patent US20240174618A1, “SUBSTITUTED (2-HETEROARYLOXYPHENYL)SULFONATES, SALTS THEREOF AND THEIR USE AS HERBICIDAL AGENTS” (Bayer Aktiengesellschaft, priority 2021, published 2024).

Legend:
Type in all cases: in vivo
Kochia scoparia (KCHSC) [1] = assay: A. Herbicidal pre-emergence efficacy, KCHSC
Description: (§1) Seeds of mono- and dicotyledonous weed plants were placed in plastic pots in sandy loam soil (doubly sown with one species each of mono- or dicotyledonous weed plants per pot) and covered with soil. The compounds of the invention, formulated in the form of wettable powders (WP) or as emulsion concentrates (EC), were then applied onto the surface of the covering soil as aqueous suspension or emulsion with addition of 0.5% additive at a water application rate of 600 liters per hectare (converted). After the treatment, the pots were placed in a greenhouse and kept under good growth conditions for the test plants. After about 3 weeks, the efficacy of the preparations was scored visually in comparison with untreated controls as percentages.
(§2) For example, • 100% efficacy=plants have died, • 0% efficacy=like untreated control plants.
(§3) Tables A1a to A12c below show the effects of selected compounds of the general formula (I) according to table 1 on various harmful plants at an application rate corresponding to 1280 g/ha or less, which were obtained by the experimental procedure mentioned above.

[2] = test system: Amaranthus retroflexus (AMARE); assay: A. Herbicidal pre-emergence efficacy, AMARE
Description: as §1, §2, §3

[3] = test system: Abutilon theophrasti (ABUTH); assay: B. Herbicidal post-emergence efficacy, ABUTH; details: 1280 g/ha, rated visually after about 3 weeks
Experimental: (§4) Seeds of mono- and dicotyledonous weed plants were placed in plastic pots in sandy loam soil (doubly sown with in each case one species of mono- or dicotyledonous weed plants per pot), covered with soil and cultivated in a greenhouse under controlled growth conditions. 2 to 3 weeks after sowing, the test plants were treated at the one-leaf stage. The compounds of the invention, formulated in the form of wettable powders (WP) or as emulsion concentrates (EC), were applied onto the green parts of the plants as aqueous suspension or emulsion with addition of 0.5% additive at a water application rate of 600 liters per hectare (converted). After the test plants had been kept in the greenhouse under optimum growth conditions for about 3 weeks, the activity of the preparations was rated visually in comparison to untreated controls.
(§5) For example, • 100% efficacy=plants have died, • 0% efficacy=like untreated control plants
(§6) Tables B1a to B12c below show the effects of selected inventive compounds of the general formula (I) according to table 1 on various harmful plants at an application rate corresponding to 1280 g/ha or less, which were obtained by the experimental procedure mentioned above.

Kochia scoparia (KCHSC) [4] = assay: B. Herbicidal post-emergence efficacy, KCHSC; details: for Post-emergence efficacy against KCHSC: 1280 g/ha; for Post-emergence efficacy against KCHSC in %: rated visually after about 3 weeks
Experimental: as §4, §5, §6

Poa annua (POAAN) [5] = assay: B. Herbicidal post-emergence efficacy, POAAN; details: 1280 g/ha
Experimental: as §4, §5, §6

Stellaria media (STEME) [6] = assay: B. Herbicidal post-emergence efficacy, STEME
Experimental: as §4, §5, §6

Veronica persica (VERPE) [7] = assay: B. Herbicidal post-emergence efficacy, VERPE
Experimental: as §4, §5, §6

[8] = test system: Amaranthus retroflexus (AMARE); assay: B. Herbicidal post-emergence efficacy, AMARE
Experimental: as §4, §5, §6

Stellaria media (STEME) [9] = assay: A. Herbicidal pre-emergence efficacy, STEME
Description: as §1, §2, §3

[10] = test system: Abutilon theophrasti (ABUTH); assay: A. Herbicidal pre-emergence efficacy, ABUTH; details: 1280 g/ha; scored visually after about 3 weeks vs untreated controls
Description: as §1, §2, §3

[11] = test system: Digitaria sanguinalis (DIGSA); assay: A. Herbicidal pre-emergence efficacy, DIGSA; details: scored visually after about 3 weeks vs untreated controls
Description: as §1, §2, §3

[12] = test system: Echinochloa crus-galli (ECHCG); assay: A. Herbicidal pre-emergence efficacy, ECHCG; details: 1280 g/ha; scored visually after about 3 weeks vs untreated controls
Description: as §1, §2, §3

Poa annua (POAAN) [13] = assay: A. Herbicidal pre-emergence efficacy, POAAN
Description: as §1, §2, §3

Setaria viridis (SETVI) = assay: A. Herbicidal pre-emergence efficacy, SETVI
Description: as §1, §2, §3

Veronica persica (VERPE) [14] = assay: A. Herbicidal pre-emergence efficacy, VERPE; details: 1280 g/ha
Description: as §1, §2, §3

[15] = pre-emergence, dosage 1280 g/ha

| SMILES | Pre-emergence efficacy against KCHSC (Kochia scoparia (KCHSC) [1]; [15]) [%] | Pre-emergence efficacy against AMARE in % ([2]; 1280 g/ha) [%] | Post-emergence efficacy against ABUTH in % [3] [%] | Post-emergence efficacy against KCHSC (Kochia scoparia (KCHSC) [4]) [%] | Post-emergence efficacy against POAAN (Poa annua (POAAN) [5]) [%] | Post-emergence efficacy against STEME (Stellaria media (STEME) [6]; 1280 g/ha) [%] | Post-emergence efficacy against VERPE (Veronica persica (VERPE) [7]; 320 g/ha) [%] | Post-emergence efficacy against VERPE (Veronica persica (VERPE) [7]; 1280 g/ha) [%] | Post-emergence efficacy against AMARE ([8]; 1280 g/ha) [%] | Pre-emergence efficacy against STEME (Stellaria media (STEME) [9]; dosage 1280 g/ha) [%] | Pre-emergence efficacy against ABUTH [10] [%] | Pre-emergence efficacy against DIGSA ([11]; 320 g/ha) [%] | Pre-emergence efficacy against DIGSA ([11]; 1280 g/ha) [%] | Pre-emergence efficacy against ECHCG [12] [%] | Pre-emergence efficacy against POAAN (Poa annua (POAAN) [13]; dosage 320 g/ha) [%] | Pre-emergence efficacy against POAAN (Poa annua (POAAN) [13]; dosage 1280 g/ha) [%] | Pre-emergence efficacy against SETVI (Setaria viridis (SETVI); dosage 1280 g/ha) [%] | Pre-emergence efficacy against VERPE in % (Veronica persica (VERPE) [14]) [%] | Post-emergence efficacy against AMARE ([8]; 80 g/ha) [%] | Post-emergence efficacy against AMARE ([8]; 320 g/ha) [%] | other results |
| --- | --- | --- | --- | --- | --- | --- | --- | --- | --- | --- | --- | --- | --- | --- | --- | --- | --- | --- | --- | --- | --- |
| O=S(=O)(CC(F)(F)F)Oc1ccccc1Oc1ncc(Cl)cn1 [Example I-4] | 100 | 100 | 90 | 90 | 90 | 90 | 90 | 100 | 90 |  |  |  |  |  |  |  |  |  |  |  |  |
| CCCCS(=O)(=O)Oc1c(OC)cccc1Oc1ncc(Cl)cn1 [Example I-17] |  |  |  |  |  |  |  |  |  | 90 |  |  |  |  |  |  |  |  |  |  |  |
| O=S(=O)(Oc1ccccc1Oc1ncc(Cl)cn1)C1CC1 [Example I-21] | 100 | 100 |  | 100 | 100 | 100 | 100 | 100 | 100 | 100 | 100 | 100 | 100 | 100 | 100 | 100 | 100 | 90 | 90 | 100 | Pre-emergence efficacy against KCHSC (Kochia scoparia (KCHSC) [1]; 80 g/ha, scored visually after about 3 weeks vs untreated controls): 90%; Pre-emergence efficacy against KCHSC (Kochia scoparia (KCHSC) [1]; pre-emergence, dosage 320 g/ha): 100%; Pre-emergence efficacy against STEME (Stellaria media (STEME) [9]; dosage 320 g/ha): 100%; Pre-emergence efficacy against AMARE in % ([2]; 80 g/ha): 100%; Pre-emergence efficacy against AMARE in % ([2]; 320 g/ha): 100%; Post-emergence efficacy against KCHSC in % (Kochia scoparia (KCHSC) [4]; 80 g/ha): 90%; Post-emergence efficacy against KCHSC in % (Kochia scoparia (KCHSC) [4]; 320 g/ha): 100%; Post-emergence efficacy against STEME (Stellaria media (STEME) [6]; 320 g/ha): 90%; Post-emergence efficacy against VERPE (Veronica persica (VERPE) [7]; 80 g/ha): 90% |
| O=S(=O)(CCCCl)Oc1ccccc1Oc1ccc(Cl)cn1 [Example I-27] | 100 | 90 |  | 90 |  | 90 | 90 | 90 | 100 | 90 | 90 | 90 | 100 | 90 | 90 | 90 | 100 | 90 |  | 90 | Pre-emergence efficacy against SETVI (Setaria viridis (SETVI); dosage 320 g/ha): 100%; Pre-emergence efficacy against AMARE in % ([2]; 320 g/ha): 90% |
| N#Cc1ccc(Oc2ccccc2OS(=O)(=O)CCCCl)nc1 [Example I-58] | 90 |  | 90 | 90 |  |  |  | 90 | 90 |  | 90 |  | 90 |  |  |  |  |  | 90 | 90 |  |
| O=[N+]([O-])c1cnc(Oc2ccccc2OS(=O)(=O)CCCCl)c(F)c1 [Example I-61] |  |  |  | 90 |  | 90 |  | 90 | 90 |  |  |  |  | 100 |  |  |  |  | 90 | 90 | Post-emergence efficacy against KCHSC in % (Kochia scoparia (KCHSC) [4]; 320 g/ha): 90% |
